These results are taken from patent publication US20210386705A1, “APPLICATION OF CHIGLITAZAR AND RELATED COMPOUNDS THEREOF” (SHENZHEN CHIPSCREEN BIOSCIENCES CO., LTD., priority 2018, published 2021).

The structures appear in SMILES notation. Values joined by “and” are separate entries in the source; they are usually repeats but may differ in a detail not shown here. Identical values can stand only once.

Common to all, as to format: cell-based, human
In experiment [1] the test system is α-smooth muscle actin (α-SMA). The experiment in a line: TGF-β1-activated hepatic stellate cells, α-SMA gene expression (qPCR). The following applies: TGF-β1 stimulation, 24 hours; FIG. 4. The procedure:
Human primary hepatic stellate cells were seeded into 6-well plates with complete growth media (Stellate Cell Medium) for 24 hours, and then the culture media were replaced by fresh media (free of serum and growth factors) containing TGF-β1 and the compound to be tested (sodium chiglitazar) or the reference compound PPARγ/α dual agonist pioglitazone or PPARα/δ dual agonist GFT505 (both purchased from Selleck), and the cells were cultured for 24 hours. The total RNAs of the samples were extracted, and reverse transcription reaction was performed. Thereafter, a conventional PCR amplification kit (FastStart Universal SYBR@ Green Master (ROX), Roche) was used for further detection, where the PCR primers were designed with reference to the NCBI standard mRNA sequence of the target genes (Table 2). PCR reaction and detection were carried out on the ABI StepOnePlus real-time quantitative PCR instrument. By calculating the relative amount of transcripts was calculate by “Delta-Delta CT method” (Livak et al. Methods 2001), and using ACTB as the housekeeping gene for normalization and the average data of untreated human hepatic stellate cells as a reference control, the relative change folds of gene expression were obtained (FIG. 4).
In general terms: In qPCR the cycle at which signal appears reflects the starting amount.

The test system of experiment [2] is monocytic cell line THP-1. The experiment in a line: MCP-1-induced chemotaxis of THP-1 cells (Transwell). The note with it: MCP-1 10 ng/mL, compound 3 μmol/L; for Cell concentration in lower chamber, Mean value / Cell concentration in lower chamber, single replicates: 24 hours pretreatment, 4 hours migration; for Migration rate: solvent control + MCP-1 = 100. An excerpt: In an in vitro model, migration of the monocytic cell line THP-1 induced by a certain concentration of chemokines (such as monocyte chemotactic protein 1, MCP-1), and accordingly such in vivo process was mimicked. Transwell technology, according to the manufacturer's instructions from Corning Inc., is considered that Traswell is a kind of a polycarbonate membrane filter as well as a permeable holder. The polycarbonate membrane divides a culture chamber into upper and lower ones, where the components of the culture medium in the lower chamber can affect the growth, differentiation and movement of the cells in upper chamber. Finally, the cell migration ability can be reflected by staining and counting the cells in the lower chamber.
When cultured to the log phase stage, THP-1 cells were resuspended, adjusted the concentration, and seeded in 24-well plates, followed by being pretreated with the culture media containing the compound to be tested (sodium chiglitazar) or the reference compound GFT505, pioglitazone, or PPARγ single agonist rosiglitazone (all purchased from Selleck) for 24 hours. Transwells were used according to the manufacturer's instructions. The culture media containing chemokine MCP-1 were added to the lower chamber (i.e., the bottom of the 24-well plates), and the cell suspension was added to the upper chamber and cultured for 4 hours. Later, the cells cultured on the “ceiling” surface of the polycarbonate membrane were fixed and stained with crystal violet solution (FIG. 6), and then the number of cells in the lower chamber was counted (Table 3).

The subject of another experiment is THP-1 cells. The experiment in a line: Inflammatory factor gene expression (MCP-1, TNFα) in PMA-activated THP-1 cells (qPCR). The note with it: 6 hours, FIG. 5. The method, then:
Human acute monocytic leukemia mononuclear cell line (THP-1) cells were activated by a certain concentration of phorbol esters (Phorbol-12-myristate-13-acetate, PMA) and differentiated into macrophages. Through this cell model, the activating effects of sodium chiglitazar and other compounds on the expression of THP-1 related inflammatory factors were detected.
THP-1 cells were seeded into 6-well plates with complete growth media for 24 hours, and then the culture media were replaced by fresh media containing PMA and the compound to be tested (sodium chiglitazar) or the reference compound GFT505 (PPARα/δ dual agonist), and the cells were cultured for 6 hours. The total RNAs of the samples were extracted, and cDNA templates were synthesized by reverse transcription reaction (Transcriptor First Strand cDNA Synthesis Kit, Roche). Thereafter, a conventional PCR amplification kit (FastStart Universal SYBR@ Green Master (ROX), Roche) was used for semi-quantitative gene expression detection on the ABI StepOnePlus real-time quantitative PCR instrument.
The relative expression change of the target genes was obtained by using the internal reference β-actin gene (ACTB) as the standard for normalization, compared with the untreated cell samples, and the relative expression change folds were calculated (FIG. 5).

As to `CCc1ccc(CCOc2ccc(CC3SC(=O)NC3=O)cc2)nc1` (stereo not drawn) [pioglitazone], the “Effect on expression of α-smooth muscle actin” value in experiment [1] is reported as “no effect”. In experiment [2], the “Cell concentration in lower chamber, Mean value” was 17514 cells/ml; the “Cell concentration in lower chamber, single replicates” value is 17529 cells/ml and 17416 cells/ml and 17597 cells/ml; the Migration rate is listed as 61.80%.
On to `CSc1ccc(C(=O)/C=C/c2cc(C)c(OC(C)(C)C(=O)O)c(C)c2)cc1` [GFT505], for which, in the experiment with THP-1 cells, the “Inhibition of phorbol esters-mediated activation of monocyte and related gene expression” value was “significantly inhibit”. Besides, the “Effect on expression of α-smooth muscle actin” value in experiment [1] is “a certain inhibitory effect”. For the same compound, in experiment [2], the “Cell concentration in lower chamber, Mean value” is 28175 cells/ml; the “Cell concentration in lower chamber, single replicates” value was 28443 cells/ml and 28511 cells/ml and 27572 cells/ml; the Migration rate worked out at 102.55%.
